Results on 16 compounds are retold here after patent US12570648B2, “6,7-dihydro-5H-pyrido[2,3-c]pyridazine derivatives and related compounds as Bcl-xL protein inhibitors and pro-apoptotic agents for treating cancer” (LES LABORATOIRES SERVIER, priority 2019, dated 2026).

Each structure is given as a SMILES string.

Assay [1] concerns the target His-His-(EK)-hsBCLXL(2-197)[N197C] (Homo sapiens (Human), UniProt Q07817, N197C). The assay is described as follows: Fluorescence quenching assay. In kind it is binding. As to conditions: 1 nM Cy5-labelled protein, 400 nM PUMA peptide, 2 hours at 23° C.; KI determined from IC50. From the text:
Fluorescence quenching assay measures the change in fluorescence intensity of C-terminally Cy5-labelled BCL-xL protein, His-His-(EK)-hsBCLXL(2-197)[N197C] (UniProtKB®
which is linked in C-terminal region to the amino acid X which corresponds to a cysteine labelled on the sulfur with Sulfo-Cyanine5 from Lumiprobe GmbH catalogue number 13380, upon binding of a C-terminally labelled peptide derived from PUMA (UniProtKB® primary accession number Q9BXH1) having an aminoacid sequence (SEQ ID:04): [[…]] which is linked in C-terminal region to the amino acid X′ where X′ is cysteine labelled on the sulfur with TQ5WS from AAT Bioquest catalogue number 2079.
The addition of a compound which binds competitively to the same site as the peptide will result in an increase in the fluorescence intensity of the protein due to displacement of the fluorescence quencher.
An 11-point serial dilution of each compound was prepared in DMSO, the final buffer conditions were 10 mM 4-(2-hydroxyethyl)-1-piperazineethanesulfonic acid [HEPES], 150 mM NaCl, 0.05% Tween 20, pH 7.4 and 5% DMSO. The final protein concentration in the assay was 1 nM with the peptide present at 400 nM. The experiments were incubated for 2 hours at 23° C. before fluorescence intensity was measured on a Biotek SynergyNeo plate reader (Excitation 620 nm, emission 680 nm). […] The K1 values were determined from the IC50 values according to Cer et al, Nucleic Acids Res, 2009, Jul. 1; 37 (WebServer issue): W441-W445.

The next assay concerns MOLT-4 cells. The assay is described as follows: MOLT-4 cell viability using MTT assay. In kind it is cell-based. As to conditions: Homo sapiens, MOLT-4, 48 h, 48 h exposure. How it is done: MTT colorimetric assay is based on the mitochondrial reduction of tetrazolium salt by living cells.
Cells were cultured at 37° C. in a humidified atmosphere containing 5% CO2. […] At the end of incubation time, 15 μL of MTT solution (5 mg/ml) were added per well and the cells were incubated for another 4 h. […] IC50s were calculated using standard four-parametric curve fitting.
Background: Tetrazolium assays rely on reduction of a dye to a coloured formazan, in cell work by metabolically active cells.

Sequence of His-His-(EK)-hsBCLXL(2-197)[N197C] (Q07817 2-197 N197C): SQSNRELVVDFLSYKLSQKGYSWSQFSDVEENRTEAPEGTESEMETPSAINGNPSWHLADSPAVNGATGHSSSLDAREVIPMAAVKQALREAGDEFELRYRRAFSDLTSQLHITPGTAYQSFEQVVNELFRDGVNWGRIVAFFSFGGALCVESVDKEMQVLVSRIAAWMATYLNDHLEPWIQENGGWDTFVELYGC

Regarding `Cc1c(Nc2nc3ccccc3s2)nnc2c1CCCN2c1nc(C(=O)O)c(CCCOc2ccc(I)cc2F)s1` [Example 77, 2-[3-(1,3-Benzothiazol-2-ylamino)-4-methyl-6,7-dihydro-5H-pyrido[2,3-c]pyridazin-8-yl]-5-[3-(2-fluoro-4-iodo-phenoxy)propyl]thiazole-4-carboxylic acid], the inhibitory constant (Ki) in assay [1] worked out at 0.17 nM. Moreover, 226 nM corresponded to half-maximal inhibition with MOLT-4 cells (IC50).
As for `Cc1c(Nc2nc3ccccc3s2)nnc2c1CCCN2c1ccc(-c2cnn(CC34CC5(C)CC(C)(C3)CC(OCCN3CCN(C)CC3)(C5)C4)c2C)c(C(=O)O)n1` [Example 128, 6-[3-(1,3-benzothiazol-2-ylamino)-4-methyl-6,7-dihydro-5H-pyrido[2,3-c]pyridazin-8-yl]-3-[1-[[3,5-dimethyl-7-[2-(4-methylpiperazin-1-yl)ethoxy]-1-adamantyl]methyl]-5-methyl-pyrazol-4-yl]pyridine-2-carboxylic acid], the Ki in assay [1] came out at 0.0018 nM. For the same compound, the IC50 in the assay with MOLT-4 cells worked out at 0.284 nM.
For `Cc1c(Nc2nc3ccccc3s2)nnc2c1CCCN2c1ccc(-c2cnn(CC34CC5(C)CC(C)(C3)CC(OCCN3CCNCC3)(C5)C4)c2C)c(C(=O)O)n1` [Example 144, 6-[3-(1,3-benzothiazol-2-ylamino)-4-methyl-6,7-dihydro-5H-pyrido[2,3-c]pyridazin-8-yl]-3-[1-[[3,5-dimethyl-7-(2-piperazin-1-ylethoxy)-1-adamantyl]methyl]-5-methyl-pyrazol-4-yl]pyridine-2-carboxylic acid] the same measures were 0.0014 nM and 13.2 nM.
In the same order, the values of `Cc1c(Nc2nc3ccccc3s2)nnc2c1CCCN2c1ccc(-c2cnn(CC34CC5(C)CC(C)(C3)CC(OCCNC(CO)CO)(C5)C4)c2C)c(C(=O)O)n1` [Example 135, 6-[3-(1,3-benzothiazol-2-ylamino)-4-methyl-6,7-dihydro-5H-pyrido[2,3-c]pyridazin-8-yl]-3-[1-[[3-[2-[[2-hydroxy-1-(hydroxymethyl)ethyl]amino]ethoxy]-5,7-dimethyl-1-adamantyl]methyl]-5-methyl-pyrazol-4-yl]pyridine-2-carboxylic acid] are 0.0018 nM and 3.05 nM.
For `COC(=O)c1nc(N2CCCc3c2nnc(Nc2nc4ccccc4s2)c3C)sc1CCCOc1ccc(C#CCN)cc1F` [Example 126, methyl 5-[3-[4-(3-aminoprop-1-ynyl)-2-fluoro-phenoxy]propyl]-2-[3-(1,3-benzothiazol-2-ylamino)-4-methyl-6,7-dihydro-5H-pyrido[2,3-c]pyridazin-8-yl]thiazole-4-carboxylate] the same measures were 0.067 nM and 53.3 nM.
Regarding `Cc1c(Nc2nc3ccccc3s2)nnc2c1CCCN2c1ccc(-c2cnn(CC34CC5(C)CC(C)(CC(CCCN6CCN(C)CC6)(C5)C3)C4)c2C)c(C(=O)O)n1` [Example 168, 6-[3-(1,3-benzothiazol-2-ylamino)-4-methyl-6,7-dihydro-5H-pyrido[2,3-c]pyridazin-8-yl]-3-[1-[[3,5-dimethyl-7-[3-(4-methylpiperazin-1-yl)propyl]-1-adamantyl]methyl]-5-methyl-pyrazol-4-yl]pyridine-2-carboxylic acid], the Ki in assay [1] turned out to be 0.0029 nM. In the assay on MOLT-4 cells, this compound gave a half-inhibitory concentration (IC50) of 0.291 nM.
In the same order, the values of `Cc1c(Nc2nc3ccccc3s2)nnc2c1CCCN2c1ccc(-c2cnn(CC34CC5(C)CC(C)(C3)CC(OCCNCC(CO)CO)(C5)C4)c2C)c(C(=O)O)n1` [Example 133, 6-[3-(1,3-benzothiazol-2-ylamino)-4-methyl-6,7-dihydro-5H-pyrido[2,3-c]pyridazin-8-yl]-3-[1-[[3-[2-[[3-hydroxy-2-(hydroxymethyl)propyl]amino]ethoxy]-5,7-dimethyl-1-adamantyl]methyl]-5-methyl-pyrazol-4-yl]pyridine-2-carboxylic acid] are 0.0021 nM and 1.68 nM.
As for `Cc1c(Nc2nc3ccccc3s2)nnc2c1CCCN2c1ccc(-c2cnn(CC34CC5(C)CC(C)(CC(CCCNCC[C@H](O)CO)(C5)C3)C4)c2C)c(C(=O)O)n1` [Example 172, 6-[3-(1,3-benzothiazol-2-ylamino)-4-methyl-6,7-dihydro-5H-pyrido[2,3-c]pyridazin-8-yl]-3-[1-[[3-[3-[[(3S)-3,4-dihydroxybutyl]amino]propyl]-5,7-dimethyl-1-adamantyl]methyl]-5-methyl-pyrazol-4-yl]pyridine-2-carboxylic acid], the Ki in assay [1] was 0.002 nM. Besides, the IC50 in the assay with MOLT-4 cells came to 3.25 nM.
For `Cc1c(Nc2nc3ccccc3s2)nnc2c1CCCN2c1ccc(-c2cnn(CC34CC5(C)CC(C)(CC(CCCNCCCO)(C5)C3)C4)c2C)c(C(=O)O)n1` [Example 170, 6-[3-(1,3-benzothiazol-2-ylamino)-4-methyl-6,7-dihydro-5H-pyrido[2,3-c]pyridazin-8-yl]-3-[1-[[3-[3-(3-hydroxypropylamino)propyl]-5,7-dimethyl-1-adamantyl]methyl]-5-methyl-pyrazol-4-yl]pyridine-2-carboxylic acid] the same measures were 0.0027 nM and 0.787 nM.
In the same order, the values of `Cc1c(Nc2nc3ccccc3s2)nnc2c1CCCN2c1ccc(-c2cnn(CC34CC5(C)CC(C)(C3)CC(OCCN3CCCCC3)(C5)C4)c2C)c(C(=O)O)n1` [Example 143, 6-[3-(1,3-benzothiazol-2-ylamino)-4-methyl-6,7-dihydro-5H-pyrido[2,3-c]pyridazin-8-yl]-3-[1-[[3,5-dimethyl-7-[2-(1-piperidyl)ethoxy]-1-adamantyl]methyl]-5-methyl-pyrazol-4-yl]pyridine-2-carboxylic acid] are 0.0014 nM and 0.0546 nM.
In the case of `Cc1c(Nc2nc3ccccc3s2)nnc2c1CCCN2c1ccc(-c2cnn(CC34CC5(C)CC(C)(C3)CC(OCCN(C)CCO)(C5)C4)c2C)c(C(=O)O)n1` [Example 150, 6-[3-(1,3-benzothiazol-2-ylamino)-4-methyl-6,7-dihydro-5H-pyrido[2,3-c]pyridazin-8-yl]-3-[1-[[3-[2-[2-hydroxyethyl(methyl)amino]ethoxy]-5,7-dimethyl-1-adamantyl]methyl]-5-methyl-pyrazol-4-yl]pyridine-2-carboxylic acid], the inhibitory constant (Ki) in assay [1] was 0.0015 nM. Further, the IC50 in the assay on MOLT-4 cells was determined as 0.219 nM.
In the same order, the values of `Cc1c(Nc2nc3ccccc3s2)nnc2c1CCCN2c1nc(C(=O)O)c(CCCOc2ccc(C#CC(C)(C)N3CCCC3)cc2F)s1` [Example 81, 2-[3-(1,3-Benzothiazol-2-ylamino)-4-methyl-6,7-dihydro-5H-pyrido[2,3-c]pyridazin-8-yl]-5-[3-[2-fluoro-4-(3-methyl-3-pyrrolidin-1-yl-but-1-ynyl)phenoxy]propyl]thiazole-4-carboxylic acid] are 0.015 nM and 0.175 nM.
As for `Cc1c(Nc2nc3ccccc3s2)nnc2c1CCCN2c1ccc(-c2cnn(CC34CC5(C)CC(C)(C3)CC(OCCNCCS(=O)(=O)O)(C5)C4)c2C)c(C(=O)O)n1` [Example 96, 6-{3-[(1,3-benzothiazol-2-yl)amino]-4-methyl-6,7-dihydropyrido[2,3-c]pyridazin-8(5H)-yl}-3-{1-[(3,5-dimethyl-7-{2-[(2-sulfoethyl)amino]ethoxy}adamantan-1-yl)methyl]-5-methyl-1H-pyrazol-4-yl}pyridine-2-carboxylic acid], the Ki in assay [1] came to 0.0022 nM. Besides, the concentration for half-maximal inhibition (IC50) in the assay with MOLT-4 cells came out at 8.27 nM.
For `Cc1c(Nc2nc3ccccc3s2)nnc2c1CCCN2c1ccc(-c2cnn(CC34CC5(C)CC(C)(C3)CC(OCCN(C)C)(C5)C4)c2C)c(C(=O)O)n1` [Example 95, 6-{3-[(1,3-benzothiazol-2-yl)amino]-4-methyl-6,7-dihydropyrido[2,3-c]pyridazin-8(5H)-yl}-3-[1-({3-[2-(dimethylamino)ethoxy]-5,7-dimethyladamantan-1-yl}methyl)-5-methyl-1H-pyrazol-4-yl]pyridine-2-carboxylic acid] the same measures were 0.0056 nM and 0.205 nM.
For `Cc1c(Nc2nc3ccccc3s2)nnc2c1CCCN2c1ccc(-c2cnn(CC34CC5(C)CC(C)(C3)CC(OCCN(CCCCO)CCCCO)(C5)C4)c2C)c(C(=O)O)n1` [Example 140, 6-[3-(1,3-benzothiazol-2-ylamino)-4-methyl-6,7-dihydro-5H-pyrido[2,3-c]pyridazin-8-yl]-3-[1-[[3-[2-[bis(4-hydroxybutyl)amino]ethoxy]-5,7-dimethyl-1-adamantyl]methyl]-5-methyl-pyrazol-4-yl]pyridine-2-carboxylic acid] the same measures were 0.0032 nM and 2.85 nM.
In the same order, the values of `Cc1c(Nc2nc3ccccc3s2)nnc2c1CCCN2c1nc(C(=O)O)c(CCCOc2ccc(C#CCNCC[C@@H](O)CO)cc2F)s1` [Example 131, 2-[3-(1,3-benzothiazol-2-ylamino)-4-methyl-6,7-dihydro-5H-pyrido[2,3-c]pyridazin-8-yl]-5-[3-[4-[3-[[(3R)-3,4-dihydroxybutyl]amino]prop-1-ynyl]-2-fluoro-phenoxy]propyl]thiazole-4-carboxylic acid] are 0.0045 nM and 0.275 nM.

For orientation: Ki means the dissociation constant of the complex between target and ligand, obtained from inhibition or displacement. In general, IC50 refers to the concentration that inhibits the measured activity by half. Low values mean higher potency, high ones lower potency.
